What is called IC50 is the midpoint of a concentration-inhibition curve.

Assay [1] concerns mouse neocortical neurons. Particulars: cited from earlier work; for induction of apoptosis on exposure: neurons, exposure to the K+ ionophore or K+-channel opener.
Assay [2] addresses T1, human brain-derived potassium channel subunit SEQ ID NO:3 (hKvQT2) (Homo sapiens, UniProt O43526, N780T).
T1 construct: EGFP (Enhanced Green Fluorescent Protein), from pEGFPC1; expressed in transfected cells; host or cells: COS-7 and HEK 293 cells, transient transfection
The assay is described as follows: cell-based. How it is done:
transfection: HEK293 cells (ATCC, Rockville, Md.) were transfected as follows: 70 ul LipoTAXI (Stratagene, La Jolla, Calif.) was added to a polystyrene tube and gently mixed. Two (2) ug pEFGPC1 (control vector used to trace the transfected cells) and 5 ug of one of the constructs (SEQ ID NO:2 in pcDNA3 or SEQ ID NO:4 in pcDNA3) was added to the lipid/media mixture and incubated for 20 minutes. Two (2)mls of OPTI-MEM I was then added and mixed gently. Cells to be transfected were washed once with OPTI-MEM I, and the 3 ml of lipid-DNA mixture were added to the washed cells and incubated at 37° C. 5% CO2 for 4-6 hours. Cells were then refed with 10% Heat Inactivated FBS (Biowhittaker, Walkersville, Md.) DMEM (Mediatech 10-017-CV). For co-expression experiments, 2 ug pEGFPC1(control vector), 5 ug of pcDNA3QT2L ((SEQ ID NO:2 in pcDNA3) and 20 ug pcDNA3QT2S (SEQ ID NO:4 in pcDNA3) were used in this protocol. Cells were diluted and replated onto 35 mm dishes 24-48 hours prior to patch clamping.
COS-7 cells (ATCC, Rockville Md.) were transfected as follows: 25 ul DMRIE-C Reagent (Gibco BRL/Life Technologies, Gaithersburg, Md.) were added to 2 ml of OPTI-MEM I (Gibco BRL/Life Technologies, Gaithersburg, Md.), mixed gently and incubated for 20 minuets. Two (2) ug pEGPPC1QT2L (EGFP fused to the N-terminus of SEQ ID NO:2) and 7.3 ug pcDNA3 or 9.3 ug pcDNA3QT2S (SEQ ID NO:4 in pcDNA3) (for a 5 molar excess over hKvQT2L (SEQ ID NO:2) construct) were added to lipid/media mixture, mixed gently and incubated for 20 minutes. Two (2) mls of OPTI-MEM I was then added to this and mixed gently. Cells to be transfected were washed once with OPTI-MEM I, and the 4 ml of lipid-DNA mixture were added to the washed cells and incubated at 37° C. 5% CO2 for 4-6 hours. Cells were then refed with 10% Heat Inactivated FBS (Biowhittaker, Walkersville, Md.) DMEM (Mediatech 10-017-CV). Cells were trypsinized, diluted and replated onto 35 mm dishes 24-48 hours prior to patch clamping.
electrophysiology: All recordings were obtained using the conventional whole cell configuration (Hammill, O. P., et al., Pfluger Arch., 391, 85-100, 1981). Cells were transfected with 5 ug pcDNA3 or 2 ug pEGFPQT2L (EGFP fused to the N-terminus of SEQ ID NO:2) 24-48 hours prior to experiments. Extracellular solution was (mM): 160 NaCl, 4.5 KCl, 1 MgC2, 2 CaCl2, 5 HEPES, 5 glucose (pH: 7.4 by NaOH, ˜325 mOsm). In K+ selectivity experiments, equimolar Na^+ was substituted by K^+. Pipette solution was (mM): 150 K-aspartate, 2 MgCl2, 1 CaCl2, 5 HEPES, 1.6 EGTA (pH: 7.2 by KOH, ˜305 mOsm). Voltage protocols were implemented and data acquired using pClamp 6.0 software (Axon Instr., CA). Solution changes and drug application with a local perfusion system.

In another assay the target is hKQT2 and hKQT3 (Homo sapiens, UniProt O43525+O43526). Particulars: co-expression in oocytes, current mimics native M-currents; cited from earlier work.
In a further assay the test system is SN56 cells. Particulars: attenuation of the potassium current; cited from earlier work.

T1 sequence (O43526 1-854 isoform O43526-2 N762T): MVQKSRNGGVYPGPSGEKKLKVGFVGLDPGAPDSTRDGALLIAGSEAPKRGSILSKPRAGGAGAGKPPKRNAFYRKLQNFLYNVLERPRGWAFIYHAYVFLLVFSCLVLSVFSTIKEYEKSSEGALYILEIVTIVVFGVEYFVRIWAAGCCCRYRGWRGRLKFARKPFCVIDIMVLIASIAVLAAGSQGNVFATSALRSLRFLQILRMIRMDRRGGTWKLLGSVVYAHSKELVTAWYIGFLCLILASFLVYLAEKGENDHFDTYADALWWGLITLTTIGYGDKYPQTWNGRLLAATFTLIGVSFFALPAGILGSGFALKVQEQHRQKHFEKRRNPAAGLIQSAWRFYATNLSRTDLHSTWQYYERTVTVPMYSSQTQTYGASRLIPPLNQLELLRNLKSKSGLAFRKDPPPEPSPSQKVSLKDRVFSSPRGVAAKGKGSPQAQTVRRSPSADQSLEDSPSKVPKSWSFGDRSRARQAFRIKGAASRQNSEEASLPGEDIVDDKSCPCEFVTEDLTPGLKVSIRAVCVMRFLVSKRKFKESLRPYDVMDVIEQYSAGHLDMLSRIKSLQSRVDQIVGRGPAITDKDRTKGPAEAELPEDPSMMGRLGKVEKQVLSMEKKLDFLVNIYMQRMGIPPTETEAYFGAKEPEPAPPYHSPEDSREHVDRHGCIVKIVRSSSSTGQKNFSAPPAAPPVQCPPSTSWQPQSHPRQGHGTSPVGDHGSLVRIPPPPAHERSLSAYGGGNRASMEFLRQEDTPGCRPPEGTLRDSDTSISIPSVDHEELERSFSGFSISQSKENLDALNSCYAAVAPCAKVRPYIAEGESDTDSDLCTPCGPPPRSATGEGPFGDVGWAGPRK
hKQT2 and hKQT3, sequence (O43526 whole entry): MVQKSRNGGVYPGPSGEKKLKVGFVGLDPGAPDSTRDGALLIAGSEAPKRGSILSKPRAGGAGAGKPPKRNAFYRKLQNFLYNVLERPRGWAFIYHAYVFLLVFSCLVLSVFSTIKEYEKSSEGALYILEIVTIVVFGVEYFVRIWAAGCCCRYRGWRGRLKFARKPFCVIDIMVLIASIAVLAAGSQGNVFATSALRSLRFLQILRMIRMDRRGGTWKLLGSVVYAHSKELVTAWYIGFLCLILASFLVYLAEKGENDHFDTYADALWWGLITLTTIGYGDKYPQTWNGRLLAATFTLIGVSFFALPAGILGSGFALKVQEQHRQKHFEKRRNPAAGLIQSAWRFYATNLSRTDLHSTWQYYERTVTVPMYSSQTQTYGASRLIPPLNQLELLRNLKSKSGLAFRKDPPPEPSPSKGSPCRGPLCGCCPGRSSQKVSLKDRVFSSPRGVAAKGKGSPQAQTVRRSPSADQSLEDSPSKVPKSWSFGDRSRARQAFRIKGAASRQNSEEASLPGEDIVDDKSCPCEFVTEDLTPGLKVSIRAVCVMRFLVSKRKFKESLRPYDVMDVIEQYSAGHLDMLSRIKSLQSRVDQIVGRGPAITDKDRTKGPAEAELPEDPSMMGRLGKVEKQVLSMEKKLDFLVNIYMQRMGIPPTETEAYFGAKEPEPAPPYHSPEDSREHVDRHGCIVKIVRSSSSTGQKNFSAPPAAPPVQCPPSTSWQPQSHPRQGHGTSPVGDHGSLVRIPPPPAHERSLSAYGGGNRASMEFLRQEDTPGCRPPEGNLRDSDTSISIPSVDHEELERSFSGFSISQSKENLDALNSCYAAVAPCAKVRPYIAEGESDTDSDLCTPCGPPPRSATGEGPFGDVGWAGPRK
hKQT2 and hKQT3, sequence (O43525 whole entry): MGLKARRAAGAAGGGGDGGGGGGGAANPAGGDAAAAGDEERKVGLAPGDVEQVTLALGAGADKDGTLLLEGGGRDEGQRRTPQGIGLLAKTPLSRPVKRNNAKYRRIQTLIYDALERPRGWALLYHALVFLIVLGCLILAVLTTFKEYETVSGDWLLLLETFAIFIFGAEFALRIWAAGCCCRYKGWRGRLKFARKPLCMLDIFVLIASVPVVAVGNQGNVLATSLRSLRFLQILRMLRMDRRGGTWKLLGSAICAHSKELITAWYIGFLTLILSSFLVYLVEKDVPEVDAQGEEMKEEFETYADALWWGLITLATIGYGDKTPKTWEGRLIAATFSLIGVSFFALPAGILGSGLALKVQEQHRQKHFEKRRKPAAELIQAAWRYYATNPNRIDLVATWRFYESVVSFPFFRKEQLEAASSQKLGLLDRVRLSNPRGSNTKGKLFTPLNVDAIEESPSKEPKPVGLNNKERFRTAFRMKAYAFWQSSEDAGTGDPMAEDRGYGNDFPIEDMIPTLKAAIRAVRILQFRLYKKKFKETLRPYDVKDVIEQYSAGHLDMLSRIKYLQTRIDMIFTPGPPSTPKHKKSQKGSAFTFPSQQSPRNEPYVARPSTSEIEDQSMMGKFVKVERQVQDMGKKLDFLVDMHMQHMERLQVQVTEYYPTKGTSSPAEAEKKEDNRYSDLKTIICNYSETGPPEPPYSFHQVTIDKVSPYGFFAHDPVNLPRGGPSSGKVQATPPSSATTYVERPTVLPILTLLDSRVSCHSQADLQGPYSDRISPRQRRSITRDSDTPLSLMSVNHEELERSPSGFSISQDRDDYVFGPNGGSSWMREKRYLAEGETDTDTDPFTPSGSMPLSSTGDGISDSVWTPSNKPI

As for `CC(C)[C@@H]1NC(=O)[C@H](C)OC(=O)[C@@H](C(C)C)NC(=O)[C@@H](C(C)C)OC(=O)[C@H](C(C)C)NC(=O)[C@H](C)OC(=O)[C@@H](C(C)C)NC(=O)[C@@H](C(C)C)OC(=O)[C@H](C(C)C)NC(=O)[C@H](C)OC(=O)[C@@H](C(C)C)NC(=O)[C@@H](C(C)C)OC1=O` [valinomycin], the “induction of neuronal apoptosis in cortical cultures” value in assay [1] (20 nM, 24 to 48 hours) was “induced typical neuronal apoptosis”. Besides, the “induction of apoptosis on exposure” value in assay [1] is given as “induced apoptosis”.

In the case of `CC1(C)Oc2ccc(C#N)cc2C(N2CCCC2=O)C1O` (centres unmarked) [cromakalim], the “induction of neuronal apoptosis” value in assay [1] (24 to 48 hours of exposure) is recorded as “induced typical neuronal apoptosis”. Also, the “induction of apoptosis on exposure” value in assay [1] is on record as “induced apoptosis”.

Turning to `CC[N+](CC)(CC)CC.[Cl-]` [TEA, tetraethylammonium chloride], the half-maximal inhibitory concentration (IC50) in assay [2] amounted to 130 µM. Further, the “slope factor of Hill fit, inhibition of SEQ ID NO:3 subunit” value in assay [2] (Hill fit to mean data points, FIG. 12D) came out at 0.59. In addition, the “block of voltage-gated outward currents” value in assay [2] (externally applied, mammalian cells transfected with SEQ ID NO:2, FIG. 12D) is “blocked potently”. Further, the “block of hKQT2/hKQT3 current” value at hKQT2 and hKQT3 is “block by TEA”. Moreover, the “effect on Aβ-mediated toxicity” value in the assay with SN56 cells was “block Aβ-mediated toxicity”. Further, the “effect on apoptosis of mouse neocortical neurons” value in assay [1] (apoptosis induced by serum deprivation or staurosporine, attenuating outward K+ current) is on record as “reduced apoptosis”.

On to `[Ba+2].[Cl-].[Cl-]` [barium], for which the “blocking of hKvQT2 (SEQ ID NO:3) channel” value in assay [2] (channel expressed in mammalian cells, properties match M-current) is recorded as “blocking by barium”.

The record behind these values is patent publication US20060183105A1, “Human brain-derived tissue-specific potassium channel” (priority 1997, published 2006).
